Data from patent publication US20240049720A1, “A SYNERGISTIC AGRICULTURAL COMPOSITION” (priority 2021, published 2024).

How the values were obtained:
Erwinia amylovora = assay: Foliar application on apple trees (var. gala), control of Erwinia amylovora; type: in vivo; settings: apple plants var. Gala; foliar spray, three applications every 7 days; kasugamycin 3.15 g/kg and/or copper 8 g/kg (17.32 g/kg copper monoglycinate)
Text: Example 4: Foliar Application of Kasugamycin and Copper Glycinate in Apple Trees (var. gala) for Controlling Erwinia amylovora
Apple trees (var. gala) were foliar sprayed with formulations having kasugamycin alone, copper glycinate alone, and combination of kasugamycin and copper glycinate. The formulation having Kasugamycin alone was applied at a dosage of 3.15 g/kg of kasugamycin (3.45 g/kg of kasugamycin hydrochloride hydrate). The formulation having copper monoglycinate was applied at a dosage of 8 g/kg of copper (17.32 g/kg of copper monoglycinate). The formulation having kasugamycin and copper monoglycinate was applied at a dosage of 3.15 g/kg of kasugamycin (3.45 g/kg of kasugamycin hydrochloride hydrate) and 8 g/kg of copper (17.32 g/kg of copper monoglycinate).
Three applications were made every 7 days when the first symptoms of the disease appeared, and the % control of Erwinia amylovora was determined. Control percentage of Erwinia amylovora with the K+CuGly mixture, as well as of kasugamycin and copper monoglycinate separately, are provided in Table 3 below: […]

Alternaria alternata = assay: In vitro control of Alternaria alternata on PDA medium; type: cell-based; settings: dose 1 L/400 L water, mixture in 1:1 ratio, 28-30° C, dark, evaluated 7 days later
Experimental: In Vitro Control of Alternaria alternata Using Kasugamycin and Copper Glycinate
Alternaria alternata was cultivated was in solid potato dextrose agar medium. The efficacy of the mixture of kasugamycin and copper glycinate in a 1:1 ratio, and each component individually was tested.
(§1) The in vitro assessment of the products effectiveness was carried out as per the treatments discussed in Table 6. Accordingly, the components in each treatment were dissolved in PDA culture medium at the dose indicated above. The mixture was homogenized and poured into sterile petri dishes. Explants of 5 mm diameter of the fungus strain Alternaria alternata were placed on the petri dishes with PDA. The dishes were incubated inverted, in dark conditions at a temperature of 28-30° C. The evaluation of the inhibition of the fungus was carried out 7 days later. Control percentage of Alternaria alternata with the K+CuGly mixture, as well as of kasugamycin and copper monoglycinate separately are provided in Table 5 below: […]

Fusarium spp = assay: In vitro control of Fusarium spp on PDA medium; type: cell-based; settings: strain isolated from potato, dose 1 L/400 L water, mixture in 1:1 ratio, 28-30° C, dark, evaluated 7 days later
Experimental: In Vitro Control of Fusarium spp Using Kasugamycin and Copper Glycinate
A strain of Fusarium spp isolated from potato was cultivated was in solid potato dextrose agar medium. The efficacy of the mixture of kasugamycin and copper glycinate in a 1:1 ratio, and each component individually was tested.
as §1, with “Table 4.” for “Table 6.”, “strain Fusarium spp.” for “strain Alternaria alternata”, “of Fusarium sp.” for “of Alternaria alternata”

[1] = system: Xanthomonas campestris pv. vesicatoria; assay: Foliar application on tomato plants (var. Pony express), control of bacterial disease; type: in vivo; settings: foliar spray, three applications every 7 days, kasugamycin 2.1 g/kg and/or copper 8 g/kg (17.32 g/kg copper monoglycinate)
Text: Example 3: Foliar Application of Kasugamycin and Copper Glycinate in Tomato Plants (Var. Pony Express) for Controlling Xanthomonas campestris pv. vesicatoria
Tomato plants (var. Pony express) were foliar sprayed with formulations having kasugamycin alone, copper monoglycinate alone, and combination of kasugamycin and copper monoglycinate. The formulation having kasugamycin alone was applied at a dosage of 2.1 g/kg of kasugamycin (2.3 g/kg of kasugamycin hydrochloride hydrate) and the treatment was designated as T1. The formulation having copper monoglycinate was applied at a dosage of 8 g/kg of copper (17.32 g/kg of copper monoglycinate) and the treatment was designated as T2. The formulation having kasugamycin and copper monoglycinate was applied at a dosage of 2.1 g/kg of kasugamycin (2.3 g/kg of kasugamycin hydrochloride hydrate) and 8 g/kg of copper (17.32 g/kg of copper monoglycinate) and the treatment was designated as T3.
Three applications were made every 7 days when the first symptoms of the disease appeared, and the % control of […] was determined. Control percentage of Xanthomonas campestris pv. vesicatoria with the K+CuGly mixture, as well as of kasugamycin and copper glycinate separately are provided in Table 2 below: […]

Compound	% control of Erwinia amylovora (Erwinia amylovora) [%]	% Control of Alternaria alternata (Alternaria alternata) [%]	% control of Fusarium sp. (Fusarium spp) [%]	% control of Xanthomonas campestris pv. vesicatoria [1] [%]
Copper monoglycinate [Copper glycinate]	50	53	39	80.5
C[C@H]1O[C@H](O[C@H]2[C@H](O)[C@@H](O)[C@@H](O)[C@H](O)[C@@H]2O)[C@@H](N)C[C@@H]1NC(=N)C(=O)O [Kasugamycin]	55.6	79	55	93.2
